# According to ChEMBL document CHEMBL5214981, “Thionated aminofluorophthalimides reduce classical markers of cellular inflammation in LPS-challenged RAW 264.7 cells” (Bioorg Med Chem Lett, 2022):
# What was measured:
# RAW264.7 [1] = test: Cytotoxicity against LPS-activated mouse RAW264.7 cells assessed as reduction in cell viability at 10 uM measured at 24 to 48 hrs by MTS assay relative to control; format: toxicity, cell-based; details: raw264.7, 10 µM, time 24-48 hrs
# RAW264.7 [2] = test: Antiinflammatory activity in LPS-activated mouse RAW264.7 cells assessed as inhibition of TNF-alpha production at 10 uM measured at 24 to 48 hrs after LPS stimulation by ELISA analysis relative to control; format: functional; design: scale not given: the % may be the effect or the level left; details: time 24-48 hrs
# RAW264.7 [3] = test: Antiinflammatory activity in LPS-activated mouse RAW264.7 cells assessed as inhibition of nitrite production at 10 uM measured at 24 to 48 hrs after LPS stimulation by ELISA analysis relative to control; format: functional; design: scale not given: the % may be the effect or the level left; details: time 24-48 hrs
# [4] = Metabolic stability in human liver microsomes assessed as compound remaining at 10 uM using pH 7.4 phosphate buffer incubated for 30 mins in the presence of NADPH regenerating system by LC/MS analysis (reference value: 100%); format: ADME, Microsome; details: read-out: Stability
# [5] = Metabolic stability in human liver microsomes assessed as compound remaining at 10 uM using pH 7.4 phosphate buffer incubated for 60 mins in the presence of NADPH regenerating system by LC/MS analysis (reference value: 100%); format: ADME, Microsome; details: read-out: Stability
# [6] = Metabolic stability in human liver microsomes assessed as compound remaining at 10 uM using pH 7.4 phosphate buffer incubated for 30 mins in the absence of NADPH regenerating system by LC/MS analysis (reference value: 100%); format: ADME, Microsome; details: read-out: Stability
# [7] = Metabolic stability in human liver microsomes assessed as compound remaining at 10 uM using pH 7.4 phosphate buffer incubated for 60 mins in the absence of NADPH regenerating system by LC/MS analysis (reference value: 100%); format: ADME, Microsome; details: read-out: Stability
"remaining at 0.5 h, 10 µM [4]","remaining at 1 h, 10 µM [5]","remaining at 0.5 h, 10 µM [6]","remaining at 1 h, 10 µM [7]",SMILES,Activity (RAW264.7 [1]),Activity (RAW264.7 [2]),Activity (RAW264.7 [3])
,,,,Nc1ccc(F)c2c1C(=O)N(C1CCC(=S)NC1=O)C2=O (centres undefined),112.4%,107%,59%
,,,,Nc1ccc(F)c2c1C(=O)N(C1CCC(=O)NC1=O)C2=O (centres undefined),100.9%,98%,86%
64%,41%,71%,46%,Nc1ccc(F)c2c1C(=S)N(C1CCC(=S)NC1=O)C2=O (centres undefined),95%,104.1%,22%
,,,,CC(C)Nc1ccc(F)c2c1C(=O)N(C1CCC(=S)NC1=O)C2=O (centres undefined),112.3%,94.4%,74.8%
,,,,O=C1NC(=S)CCC1N1C(=O)c2c(F)ccc([N+](=O)[O-])c2C1=O (centres undefined),44.9%,51.3%,4.7%
,,,,CC(C)Nc1ccc(F)c2c1C(=S)N(C1CCC(=S)NC1=O)C2=O (centres undefined),74.1%,74.7%,32.3%
,,,,Nc1c(F)ccc2c1C(=S)N(C1CCC(=S)NC1=O)C2=O (centres undefined),92%,114%,40%
,,,,CC(C)Nc1ccc(F)c2c1C(=O)N(C1CCC(=O)NC1=O)C2=O (centres undefined),99.9%,87.1%,110.1%
,,,,O=C1CCC(N2C(=O)c3c(F)ccc([N+](=O)[O-])c3C2=O)C(=O)N1 (centres undefined),104.9%,86%,56.8%
68%,48%,71%,53%,Nc1cccc2c1C(=S)N(C1CCC(=S)NC1=O)C2=O (centres undefined),92%,113%,43%
,,,,Nc1c(F)ccc2c1C(=O)N(C1CCC(=O)NC1=O)C2=O (centres undefined),90%,93%,100%
,,,,Nc1cccc2c1C(=O)N(C1CCC(=O)NC1=O)C2=O (centres undefined) [POMALIDOMIDE],95%,95%,91%
